Results taken from patent US12419309B2, “Chemical composition for seed treatment” (Yara UK Limited, priority 2019, dated 2025).

Test system: seeds of leguminous crops
Assay: Liquid composition coated on seeds of leguminous crops, dried and sowed in soil
Type: in vivo
Settings: monoethanolamine as component of the composition
Text: The liquid composition as disclosed herein was coated on seeds of leguminous crops and the seeds were dried and sowed in soil. The germination rate was increased as well as the number of nodules, the mass of roots and the amount of dry matter in the shoots.

NCCO [Monoethanolamine]
Effect on the growth of nodules: no detrimental effect
